Experiments:
[1] = system: Human platelet aggregation; experiment: Platelet Function Analyzer (PFA-100) study; type: cell-based; conditions: whole human blood, Collagen/Epinephrine cartridges, 1.25 μg/ml
Experimental: Human platelet aggregation was studied using the platelet function analyzer (PFA-100®). Human blood was collected from volunteers who had denied taking any platelet inhibitory medications over the previous two weeks. Blood was collected in 3.2% sodium citrate Vacutainer tubes (Becton Dickinson). Tubes were inverted 5 times and the blood was transferred to 15 ml polypropylene conical tubes. […] Tubes were inverted 10 times to mix, and allowed to sit at room temperature for 10 minutes prior to run in PFA-100. The manufacturers protocol was followed for the PFA-100 using Collagen/Epinephrine cartridges (0.5% DMSO alone in whole blood gave closure times of 125+/−13.9 seconds). Maximum closure time is 300 seconds, as set by the manufacturer.
All compounds were efficacious in the platelet function assay.

[2] = system: atherosclerosis in ApoE KO mice; experiment: ApoE KO mouse model of atherosclerosis (20 weeks); type: in vivo; conditions: for decrease of atherosclerotic plaque burden at the aortic sinus vs control / atherosclerotic plaque burden at the aortic sinus: 20 weeks; for atherosclerotic plaque burden at the aortic sinus: control 519220±100694; for Atherosclerotic Lesions Along the Aorta (percent lesion area), % Decrease vs Control: ns = not significant
Experimental: The apolipoprotein E (ApoE) knockout mouse was created by gene targeting in embryonic stem cells to disrupt the ApoE gene. ApoE is a glycoprotein that is responsible for the uptake of chylomicrons and VLDL particles by the liver, thereby preventing the accumulation of cholesterol rich remnants in the blood stream.
Six week old male ApoE KO mice were treated with 4-{3-[1-benzhydryl-5-chloro-2-(2-{[(3,4-dichlorobenzyl)sulfonyl]amino}ethyl)-1H-indol-3-yl]propyl}benzoic acid (Compound C).

[3] = system: serum thromboxane B2; experiment: Thromboxane B2 levels in the ApoE KO mouse model; type: in vivo; conditions: ApoE KO mice, 3.3 mg/g chow for two days; vehicle 76.1±17.3
Experimental: Blood was collected through the retro-orbital siunus and left to coagulate at 37° C. for one hour. Serum was then isolated and assayed for thromboxane B2 by ELISA.
In a separate experiment, ApoE KO mice were dosed with vehicle or the compound of Example 25 at 10 mg/kg by oral gavage. Blood was collected through the retro-orbital siunus and left to coagulate at 37° C. for one hour. Serum was then isolated and assayed for thromboxane B2 by ELISA.

[4] = system: primary dopaminergic neurons; experiment: MPP+ exposure in dopaminergic neurons; type: cell-based, rat; conditions: 10 μM MPP+ 60 minutes, control 100, MPP+ alone 56.6
Experimental: Primary dopaminergic neurons were isolated from E15 rat embryos as described in Pong K., et al., (1997) J. Neurochem. 69 986-994. Briefly, the ventral mesencephalon was isolated and tissue was pooled in ice-cold phosphate buffer saline (PBS) without Ca^2+ and Mg^2+. The tissue was transferred to an enzymatic dissociation media containing 20 IU/ml papain in Earle's balanced salt solution (Worthington Biochemical, Freehold, N.J.) and incubated for 30 minutes at 37° C. After enzymatic dissociation, the papain solution was aspirated and the tissue mechanically triturated with a fire-polished Pasteur pipette in complete media [Neurobasal Medium with B-27 supplement (Gibco, Grand Island, N.Y.), penicillin/streptomycin, aphidicolin, glutamate] containing 2,000 IU/ml DNase and 10 mg/ml ovomucoid protease inhibitor. Single-cell suspensions in complete media were plated on pre-coated poly-L-ornithine/laminin 24-well plates (Becton-Dickinson, Bedford, Mass.) at a density of 5.0×10^5 cells/well. Cells were maintained for one week prior to experimentation.
Cultures were exposed to 10 μM MPP^+ for 60 minutes. After the exposure, fresh media was exchanged and fresh compound was added. Dopaminergic neuron viability was determined 24 hours later by measuring ^3H-dopamine uptake as described in Pong et al., 1997, supra.

[5] = Drug exposure in ApoE KO mice fed supplemented chow; type: in vivo, mouse; conditions: chow supplemented at 3.3 mg/g
[6] = system: Ascaris suum antigen-induced bronchoconstriction and AHR; conditions: literature (Abraham et al. 1992; Jones et al. 1995); cited from earlier work

O=C(O)c1ccc(CCCc2c(CCNS(=O)(=O)Cc3ccc(Cl)c(Cl)c3)n(C(c3ccccc3)c3ccccc3)c3ccc(Cl)cc23)cc1 [Compound C, 4-{3-[1-benzhydryl-5-chloro-2-(2-{[(3,4-dichlorobenzyl)sulfonyl]amino}ethyl)-1H-indol-3-yl]propyl}benzoic acid]
PFA-100 closure time [1]: increased closure time | Serum thromboxane B2 levels compared to control animals ([2]; 1.3 mg/g and 3.3 mg/g chow, after 9 and 20 weeks of treatment): significantly decreased | percent of total animals with Stage 3 (advanced fibrous plaque) ([2]; 1.3 mg/g chow): 33% | percent of total animals with Stage 4 (stable complicated lesion) ([2]; 1.3 mg/g chow): 56% | percent of total animals with Stage 5 (unstable complicated lesion) ([2]; 1.3 mg/g chow): 11% | decrease of atherosclerotic plaque burden at the aortic sinus vs control ([2]; 1.3 mg/g chow, p<0.05): 32.7% | atherosclerotic plaque burden at the aortic sinus ([2]; 1.3 mg/g chow): 349582±132685 μm^2 | Serum Thromboxane B2 Levels, % Decrease vs Control ([2]; 1.3 mg/g chow, after 9 weeks of treatment): 52.5% | Serum Thromboxane B2 Levels, % Decrease vs Control ([2]; 1.3 mg/g chow, after 20 weeks of treatment): 36.6% | Atherosclerotic Lesions Along the Aorta (percent lesion area), % Decrease vs Control ([2]; 1.3 mg/g chow): 32.4 ns % | percent of total animals with Stage 1 (fibrofatty lesion) ([2]; 3.3 mg/g chow): 9% | percent of total animals with Stage 2 (early fibrous plaque) ([2]; 3.3 mg/g chow): 18% | percent of total animals with Stage 3 (advanced fibrous plaque) ([2]; 3.3 mg/g chow): 37% | percent of total animals with Stage 4 (stable complicated lesion) ([2]; 3.3 mg/g chow): 27% | percent of total animals with Stage 5 (unstable complicated lesion) ([2]; 3.3 mg/g chow): 9% | decrease of atherosclerotic plaque burden at the aortic sinus vs control ([2]; 3.3 mg/g chow, p<0.001): 45.6% | atherosclerotic plaque burden at the aortic sinus ([2]; 3.3 mg/g chow): 282697±146462 μm^2 | Serum Thromboxane B2 Levels, % Decrease vs Control ([2]; 3.3 mg/g chow, after 9 weeks of treatment): 61.2% | Serum Thromboxane B2 Levels, % Decrease vs Control ([2]; 3.3 mg/g chow, after 20 weeks of treatment): 49.5% | Atherosclerotic Lesions Along the Aorta (percent lesion area), % Decrease vs Control ([2]; 3.3 mg/g chow): 35.2 ns % | atherosclerotic lesion complexity at the aortic sinus vs control ([2]; 1.3 and 3.3 mg/g chow): reduced | serum Thromboxane concentration [3]: 33.5 ± 11.6 ng/mL | dopaminergic neuron viability (3H-dopamine uptake), Avg. ([4]; 0.3 μM): 68.6 | dopaminergic neuron viability (3H-dopamine uptake), Avg. ([4]; 1 μM): 70.6 | dopaminergic neuron viability (3H-dopamine uptake), Avg. ([4]; 3 μM): 75.9 | dopaminergic neuron viability (3H-dopamine uptake), Avg. ([4]; 10 μM): 79.6 | maximum drug exposure [5]: ~500 ng/mL

CC(c1cc2ccccc2s1)N(O)C(N)=O (stereo not shown) [zileuton]
effect on antigen-induced airway responses in the sheep model [6]: blocks antigen-induced late airway responses, inflammation, and AHR
